{"source": "patent US4168274A", "about": "“Production of a peracid and an oxirane” (priority 1975, dated 1979)", "origin": "cited, not measured here"}
{"conditions": "Table I, carboxylic acids and solvents, symbols .infin., v, s, δ"}
{"compound": "CCCOCCC", "note": "[di n-propyl ether]", "solubility in water": "δ"}
{"compound": "CCCCCCC(=O)O", "note": "[n.heptoic]", "solubility in water": "δ"}
{"compound": "CCCl", "note": "[chloroethane]", "solubility in water": "δ"}
{"compound": "CCCCCC(=O)O", "note": "[caproic]", "solubility in water": "δ"}
{"compound": "CC(Cl)CCl", "note": "(centres unmarked) [propylene dichloride]", "solubility in water": "δ"}
{"compound": "O=[N+]([O-])c1ccccc1", "note": "[nitrobenzene]", "solubility in water": "δ"}
{"compound": "ClC(Cl)C(Cl)Cl", "note": "[tetrachloroethane]", "solubility in water": "δ"}
{"compound": "CCOC(=O)CC", "note": "[ethyl propionate]", "solubility in water": "δ"}
